Patent US20220056037A1 (SPV THERAPEUTICS INC., priority 2018, published 2022)

How the values were obtained:
BXF 5637 = assay: 2D cell proliferation assay (CellTiter-Blue); type: cell-based; conditions: 72 h; cell line BXF 5637; three days of treatment; read-out: IC (abs. IC50)
Protocol: (§1) Viability of the cells was analyzed by using the CellTiter-Blue® Cell Viability Assay (Promega), and was performed according to manufacturer's instructions. Briefly, cells were harvested from exponential phase cultures (Chapter 6.6), counted and plated in 96-well flat-bottom microtiter plates at a cell density of 4,000-60,000 cells/well in a volume of 140 μl per well. After a 24 hours recovery period, 10 μL cell culture medium (six control wells/plate) or culture medium with test compound were added (Chapter 6.2). The compounds were applied at five concentrations in full-log increments up to 100 μM in duplicate. Cultures were incubated at 37° C. and 5% CO2 in a humidified atmosphere for another three days. After three days of treatment, 20 μl/well CellTiter-Blue® reagent was added. Following incubation with CellTiter-Blue® reagent for up to four hours, fluorescence (FU) was measured by using the Enspire Multimode Plate Reader (excitation λ=570 nm, emission λ=600 nm). For calculations, the mean values of duplicate/sextuplicate (untreated control) data were used.
(§2) Drug effects were expressed in terms of the percentage of the fluorescence signal, obtained by comparison of the mean signal in the treated wells with the mean signal of the untreated controls (expressed by the test-versus-control value, T/C-value [%]):
(§3) IC values are reported as relative IC50 values and absolute IC50 and IC70 values. […] The absolute IC70 value gives the concentration of the test compound that achieves T/C=30%. The relative IC50 value is the concentration of test compound that gives a response half way between the top and bottom plateau of the sigmoidal concentration-response curve (inflection point of the curve). Calculation was done by 4parameter non-linear curve fit (Oncotest Data Warehouse Software).
(§4) If an IC50 or IC70 value could not be determined within the examined dose range (because a compound was either too active or lacked activity), the lowest or highest concentration studied was used for calculation of the geometric mean value.
(§5) The overall potency of a compound was determined by the geometric mean IC50/IC70 values of all individual IC50/IC70 values. In the heatmap representation of IC50 and IC70 values, the distribution of the IC50 or IC70 values obtained for a test compound in the individual cell lines is given in relation to the geometric mean […] or IC70 value, obtained over all PDX models tested. The individual IC values range from 1/32-fold geometric mean IC (corresponding to very potent compound activity or high tumor sensitivity) to 32-fold geometric mean IC (corresponding to lack of compound activity or tumor resistance). The heatmap presentation, therefore, represents an antiproliferative “fingerprint” profile of a test compound.

LEXFCM K-562 = assay: 2D cell proliferation assay (CellTiter-Blue); type: cell-based; conditions: Homo sapiens, K562, 72 h; cell line LEXFCM K-562; three days of treatment; read-out: IC (abs. IC50)
Protocol: as §1, §2, §3, §4, §5

LIXAH HLE = assay: 2D cell proliferation assay (CellTiter-Blue); type: cell-based; conditions: 72 h; cell line LIXAH HLE; three days of treatment; read-out: IC (abs. IC50)
Protocol: as §1, §2, §3, §4, §5

LIXFH HEP-3B = assay: 2D cell proliferation assay (CellTiter-Blue); type: cell-based; conditions: Homo sapiens, Hep3B, 72 h; cell line LIXFH HEP-3B; three days of treatment; read-out: IC (abs. IC50)
Protocol: as §1, §2, §3, §4, §5

LXFA A549 = assay: 2D cell proliferation assay (CellTiter-Blue); type: cell-based; conditions: Homo sapiens, 72 h; cell line LXFA A549; three days of treatment; read-out: IC (abs. IC50)
Protocol: as §1, §2, §3, §4, §5

LXFL NCI-H460 = assay: 2D cell proliferation assay (CellTiter-Blue); type: cell-based; conditions: Homo sapiens, 72 h; cell line LXFL NCI-H460; three days of treatment; read-out: IC (abs. IC50)
Protocol: as §1, §2, §3, §4, §5

LYXFNH Daudi = assay: 2D cell proliferation assay (CellTiter-Blue); type: cell-based; conditions: Homo sapiens, 72 h; cell line LYXFNH Daudi; three days of treatment; read-out: IC (abs. IC50)
Protocol: as §1, §2, §3, §4, §5

MAXFHER BT-474 = assay: 2D cell proliferation assay (CellTiter-Blue); type: cell-based; conditions: Homo sapiens, 72 h; cell line MAXFHER BT-474; three days of treatment; read-out: IC (abs. IC50)
Protocol: as §1, §2, §3, §4, §5

MAXFHER SK-BR-3 = assay: 2D cell proliferation assay (CellTiter-Blue); type: cell-based; conditions: Homo sapiens, 72 h; cell line MAXFHER SK-BR-3; three days of treatment; read-out: IC (abs. IC50)
Protocol: as §1, §2, §3, §4, §5

MAXFLB MCF7 (ER +) = assay: 2D cell proliferation assay (CellTiter-Blue); type: cell-based; conditions: Homo sapiens, 72 h; cell line MAXFLB MCF7 (ER +); three days of treatment; read-out: IC (abs. IC50)
Protocol: as §1, §2, §3, §4, §5

MAXFTN ZR-75-1 (ER +) = assay: 2D cell proliferation assay (CellTiter-Blue); type: cell-based; conditions: Homo sapiens, 72 h; cell line MAXFTN ZR-75-1 (ER +); three days of treatment; read-out: IC (abs. IC50)
Protocol: as §1, §2, §3, §4, §5

PAXF MIA-Pa-Ca-2 = assay: 2D cell proliferation assay (CellTiter-Blue); type: cell-based; conditions: Homo sapiens, MIA PaCa-2, 72 h; cell line PAXF MIA-Pa-Ca-2; three days of treatment; read-out: IC (abs. IC50)
Protocol: as §1, §2, §3, §4, §5

PRXF 22Rv1 = assay: 2D cell proliferation assay (CellTiter-Blue); type: cell-based; conditions: Homo sapiens, 72 h; cell line PRXF 22Rv1; three days of treatment; read-out: IC (abs. IC50)
Protocol: as §1, §2, §3, §4, §5

PRXF DU-145 = assay: 2D cell proliferation assay (CellTiter-Blue); type: cell-based; conditions: Homo sapiens, 72 h; cell line PRXF DU-145; three days of treatment; read-out: IC (abs. IC50)
Protocol: as §1, §2, §3, §4, §5

PRXF LNCaP = assay: 2D cell proliferation assay (CellTiter-Blue); type: cell-based; conditions: Homo sapiens, 72 h; cell line PRXF LNCaP; three days of treatment; read-out: IC (abs. IC50)
Protocol: as §1, §2, §3, §4, §5

all cell lines tested = assay: 2D cell proliferation assay (CellTiter-Blue), geometric mean over the panel; type: cell-based; conditions: geometric mean of all individual IC50 values of Table 4; read-out: Geomean abs. IC50 value
Protocol: as §1, with “For calculations, the mean values of duplicate/sextuplicate (untreated control) data were used.” left out
as §4
The overall potency of a compound was determined by the geometric mean IC50/IC70 values of all individual IC50/IC70 values. […]

[1] = Nonclinical pharmacokinetic study, IV and oral, in rats
Protocol: Nonclinical pharmacokinetic (PK) parameters of lead CDK4/6/9 inhibitors were determined in an intravenous (IV) and oral study (p.o.) conducted in rats. Lead compounds were each administered as a single oral dose at 100 mg/kg or by IV bolus via the caudal vein at the dose of 30 mg/kg. Blood samples were collected at 0.25, 0.5, 1, 2, 4, 8, 12, and 24 hours post i.v. administration, and at 1, 2, 4, 8, 24 and 48 hours post oral administration. Plasma was processed for drug concentration analysis using a validated LCMS/MS method, and PK parameters were calculated by using WinNonlin.

[2] = rats, oral administration, 100 mg/kg, N = 3

CN1CCN(c2ccc(Nc3ncc4cc(C(=O)N(C)C)n(C56CC(C5)C6)c4n3)cc2)CC1 [SPV113]
IC50 (BXF 5637): 0.476 µM
IC50 (LEXFCM K-562): 1.15 µM
IC50 (LIXAH HLE): 0.229 µM
IC50 (LIXFH HEP-3B): 0.367 µM
IC50 (LXFA A549): 1.23 µM
IC50 (LXFL NCI-H460): 0.291 µM
IC50 (LYXFNH Daudi): ≤ 0.01 µM
IC50 (MAXFHER BT-474): 0.802 µM
IC50 (MAXFHER SK-BR-3): 2.04 µM
IC50 (MAXFLB MCF7 (ER +)): 0.173 µM
IC50 (MAXFTN ZR-75-1 (ER +)): 12.6 µM
IC50 (PAXF MIA-Pa-Ca-2): 0.105 µM
IC50 (PRXF 22Rv1): ≤ 0.01 µM
IC50 (PRXF DU-145): 0.253 µM
IC50 (PRXF LNCaP): 0.116 µM
IC50 (all cell lines tested): 0.391 µM
Cmax ([1]; rat, plasma, iv, 30 mg/kg): 6830 ng/mL
clearance ([1]; rat, plasma, iv, 30 mg/kg): 18.7 mL/min/kg
half-life ([1]; rat, plasma, iv, 30 mg/kg): 5.73 h
Cmax ([1]; rat, plasma, po, 100 mg/kg): 2520 ng/mL
MRT ([1]; rat, plasma, po, 100 mg/kg): 25.5 h
BIOAVAILABILITY F ([1]; rats, oral 100 mg/kg vs IV bolus 30 mg/kg): 33.3%
AUC [1, 2]: 33798 ng·h/mL
T1/2 [1, 2]: 6.0 h
